Among the data in patent US20250171462A1 (NICO Therapeutics, Inc., priority 2022, published 2025) are IC50 values, retold here.

Structures are written as SMILES. Read-outs that look alike come from different tables or passages of the source.

What is called IC50 is the concentration that gives 50% inhibition.

In the assay the target is T1, full-length SARM1 (FL-SARM1) (Homo sapiens, UniProt Q6SZW1).
T1 sequence (Q6SZW1 28-724): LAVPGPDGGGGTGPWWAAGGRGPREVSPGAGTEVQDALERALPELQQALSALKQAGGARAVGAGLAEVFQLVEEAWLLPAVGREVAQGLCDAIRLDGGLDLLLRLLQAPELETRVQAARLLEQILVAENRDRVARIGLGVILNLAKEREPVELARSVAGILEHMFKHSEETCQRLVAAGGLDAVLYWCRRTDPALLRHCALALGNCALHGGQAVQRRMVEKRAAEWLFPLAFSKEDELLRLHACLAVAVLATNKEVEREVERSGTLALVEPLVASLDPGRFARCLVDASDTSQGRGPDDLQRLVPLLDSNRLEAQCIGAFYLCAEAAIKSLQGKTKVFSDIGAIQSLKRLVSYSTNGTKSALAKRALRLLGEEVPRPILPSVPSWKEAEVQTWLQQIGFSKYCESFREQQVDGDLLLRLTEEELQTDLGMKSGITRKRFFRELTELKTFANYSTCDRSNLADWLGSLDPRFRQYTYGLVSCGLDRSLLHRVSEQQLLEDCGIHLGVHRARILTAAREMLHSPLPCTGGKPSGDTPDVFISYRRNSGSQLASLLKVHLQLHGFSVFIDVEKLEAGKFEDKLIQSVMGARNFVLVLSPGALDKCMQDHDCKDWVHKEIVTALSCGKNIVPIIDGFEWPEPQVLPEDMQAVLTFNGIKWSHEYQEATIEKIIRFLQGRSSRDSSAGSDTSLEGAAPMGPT
Briefly: FL-SARM1 cellular lysate assay (NAD/NADH-Glo detection of remaining NAD+, NMN-activated).

[1] abbreviates: Activity (μM) (IC50), 11 point curve.
Setting [2] is: read-out: Activity (IC50 class), 11 point curve.
[3] abbreviates: Activity (IC50 class), 11 point curve.

On to `Cc1cc(F)c(NC(=O)N2[C@@H]3C[C@@H](C)C[C@H]2C3)cc1-c1cncnn1` [Example 221, cis-N-[2-fluoro-4-methyl-5-(1,2,4-triazin-6-yl)phenyl]-3-methyl-6-azabicyclo[3.1.1]heptane-6-carboxamide], for which the concentration for half-maximal inhibition (IC50) reads like this: under setting [1], 0.6 µM; under setting [2], 0.0001 to 1 µM.
For `Cc1ccc(NC(=O)N2[C@@H]3C[C@H](C)C[C@H]2C3)cc1-c1ccccn1` [Example 10, trans-3-Methyl-N-(4-methyl-3-(pyridin-2-yl)phenyl)-6-azabicyclo[3.1.1]heptane-6-carboxamide], in that order: 0.01 µM and 0.0001 to 1 µM.
For `Cc1ccc(NC(=O)N2C3C[C@H](C)C[C@@H]2C3)cc1-c1ncc(F)cn1` [Example 51, cis-N-(3-(5-fluoropyrimidin-2-yl)-4-methylphenyl)-3-methyl-6-azabicyclo[3.1.1]heptane-6-carboxamide], in that order: 0.01 µM and 0.0001 to 1 µM.
For the molecule `Cc1ccc(NC(=O)N2C3CCCC2C3)cc1-c1ccc(C(F)(F)F)nn1` [Example 61, N-(4-methyl-3-(6-(trifluoromethyl)pyridazine-3-yl)phenyl)-6-azabicyclo[3.1.1]heptane-6-carboxamide], the half-inhibitory concentration (IC50) reads like this: under setting [3], above 10 µM; under setting [1], 11 µM.
As for `Cc1ccc(NC(=O)N2C3CCCC2C3)cc1-c1cc(C#N)cnn1` [Example 63, N-(3-(5-cyanopyridazin-3-yl)-4-methylphenyl)-6-azabicyclo[3.1.1]heptane-6-carboxamide], the concentration for half-maximal inhibition (IC50) by setting is: under setting [1], 0.7 µM; under setting [2], 0.0001 to 1 µM.
`Cc1ccc(NC(=O)C2CC3(CC3)C2)cc1-c1ccccn1` [Example 119, N-(4-methyl-3-pyridin-2-ylphenyl)spiro[2.3]hexane-5-carboxamide]: the half-maximal inhibitory concentration (IC50) under setting [3] fell in the range of 1 to 10 µM and half-maximal inhibition under setting [1] (IC50) required 1.9 µM.
Turning to `COCC12CC(C)CC(C1)N2C(=O)Nc1cc(-c2ncccn2)c(C)cc1F` (single isomer, unassigned) [Example 200, trans-N-(2-fluoro-4-methyl-5-pyrimidin-2-ylphenyl)-1-(methoxymethyl)-3-methyl-6-azabicyclo[3.1.1]heptane-6-carboxamide], the half-maximal inhibitory concentration (IC50) was 0.1 µM under setting [1] and 0.0001 to 1 µM under setting [2].
With `Cc1ccc(NC(=O)[C@@H]2[C@@H]3CC[C@H]2N(CC(F)(F)F)C3)cc1-c1ccccn1` (single isomer, unassigned) [Example 105, trans-N-(4-methyl-3-(pyridin-2-yl)phenyl)-2-(2,2,2-trifluoroethyl)-2-azabicyclo[2.2.1]heptane-7-carboxamide], the half-maximal inhibitory concentration (IC50) is above 10 µM under setting [3] and 17 µM under setting [1].
Turning to `Cc1cc(F)c(NC(=O)N2[C@@H]3C[C@@H](C)C[C@H]2C3)cc1-c1nccnn1` [Example 240, cis-N-[2-fluoro-4-methyl-5-(1,2,4-triazin-3-yl)phenyl]-3-methyl-6-azabicyclo[3.1.1]heptane-6-carboxamide], the IC50 by setting is: under setting [1], 0.09 µM; under setting [2], 0.0001 to 1 µM.
With `Cc1ccc(NC(=O)N2CCCC2c2cnn(C)c2)cc1-c1ccccn1` (racemic) [Example 90, 2-(1-methylpyrazol-4-yl)-N-(4-methyl-3-pyridin-2-ylphenyl)pyrrolidine-1-carboxamide], the IC50 runs as follows: under setting [3], above 10 µM; under setting [1], 14 µM.
As for `Cc1ccc(NC(=O)[C@@H]2CO[C@H](C(F)(F)F)CN2c2ccccn2)cc1-c1ncc(F)cn1` (racemic) [Example 272, cis-N-(3-(5-fluoropyrimidin-2-yl)-4-methylphenyl)-4-(pyridin-2-yl)-6-(trifluoromethyl) morpholine-3-carboxamide], the IC50 by setting is: under setting [3], 1 to 10 µM; under setting [1], 1.1 µM.
For `Cc1ccc(NC(=O)N2CC3CC2Cc2ccccc23)cc1-c1ccccn1` (stereo not drawn) [Example 21, N-(4-methyl-3-(pyridin-2-yl)phenyl)-4,5-dihydro-1H-1,4-methanobenzo[d]azepine-3(2H)-carboxamide], in that order: 1 to 10 µM and 2.5 µM.
For `Cc1ccc(NC(=O)[C@@H]2C[C@@H]3C[C@@H]3C2)cc1-c1ncc(F)cn1` [Example 325], in that order: 1 to 10 µM and 1.2 µM.
For `Cc1ccc(NC(=O)N2CC[C@@H]3[C@@H](C)[C@@H]3C2)cc1-c1ccccn1` (racemic) [Example 37, trans-7-methyl-N-(4-methyl-3-(pyridin-2-yl)phenyl)-3-azabicyclo[4.1.0]heptane-3-carboxamide], the IC50 is 0.1 µM under setting [1] and 0.0001 to 1 µM under setting [2].
`Cc1cc(C)c(-c2ccccn2)cc1NC(=O)N1C2CCCC1C2` [Example 76, N-(2,4-dimethyl-5-(pyridin-2-yl)phenyl)-6-azabicyclo[3.1.1]heptane-6-carboxamide]: the IC50 was 1 to 10 µM under setting [3] and 6.8 µM under setting [1].
With `Cc1ccc(NC(=O)[C@@H]2C[C@@H]2c2ccccc2)cc1-c1cccnn1` [Example 299, (1R,2S)-N-(4-methyl-3-pyridazin-3-ylphenyl)-2-phenylcyclopropane-1-carboxamide], the IC50 by setting is: under setting [3], above 10 µM; under setting [1], 14 µM.
Take `CCOC(C)[C@@]12CC(C[C@@H](C)C1)N2C(=O)Nc1ccc(C)c(-c2ncc(F)cn2)c1` (single isomer, unassigned) [Example 188, cis-1-(1-ethoxyethyl)-N-(3-(5-fluoropyrimidin-2-yl)-4-methylphenyl)-3-methyl-6-azabicyclo[3.1.1]heptane-6-carboxamide]: the half-inhibitory concentration (IC50) is 0.003 µM under setting [1] and 0.0001 to 1 µM under setting [2].
For `Cc1ccc(NC(=O)N2C3C[C@@H](C)C[C@H]2C3)cc1-c1nncc(C(F)(F)F)n1` [Example 184, cis-3-methyl-N-(4-methyl-3-(5-(trifluoromethyl)-1,2,4-triazin-3-yl)phenyl)-6-azabicyclo[3.1.1]heptane-6-carboxamide], the IC50 is 0.07 µM under setting [1] and 0.0001 to 1 µM under setting [2].
`CSc1ncc(N2[C@@H](C(=O)Nc3ccc(C)c(-c4ncc(F)cn4)c3)C[C@H]3C[C@H]32)nn1` [Example 172, (1R,3R,5R)—N-(3-(5-fluoropyrimidin-2-yl)-4-methylphenyl)-2-(3-(methylthio)-1,2,4-triazin-6-yl)-2-azabicyclo[3.1.0]hexane-3-carboxamide]: the IC50 reads like this: under setting [3], 1 to 10 µM; under setting [1], 6.2 µM.
With `Cc1ccc(NC(=O)N2[C@@H]3C[C@@H](F)C[C@H]2C3)cc1-c1ccccn1` [Example 27, cis-3-fluoro-N-(4-methyl-3-(pyridin-2-yl)phenyl)-6-azabicyclo[3.1.1]heptane-6-carboxamide], the IC50 is, setting by setting: under setting [1], 0.1 µM; under setting [2], 0.0001 to 1 µM.
Turning to `Cc1ccc(NC(=O)C(C)(O)C2CCC2)cc1-c1ccccn1` (racemic) [Example 118, 2-cyclobutyl-2-hydroxy-N-(4-methyl-3-pyridin-2-ylphenyl)propanamide], the IC50 under setting [3] was 1 to 10 µM and the half-maximal inhibitory concentration (IC50) under setting [1] was determined as 6.1 µM.
As for `Cc1ccc(NC(=O)N2[C@@H]3C[C@@H](C)C[C@H]2C3)cc1-c1cncc(C#N)n1` [Example 238, cis-N-[3-(6-cyanopyrazin-2-yl)-4-methylphenyl]-3-methyl-6-azabicyclo[3.1.1]heptane-6-carboxamide], the concentration for half-maximal inhibition (IC50) by setting is: under setting [1], 0.04 µM; under setting [2], 0.0001 to 1 µM.
In the case of `Cc1cc(F)c(NC(=O)N2CC3CC2c2ccccc23)cc1-c1cccnn1` (single isomer, unassigned) [Example 201, N-(2-fluoro-4-methyl-5-pyridazin-3-ylphenyl)-9-azatricyclo[6.2.1.02,7]undeca-2(7),3,5-triene-9-carboxamide], the IC50 under setting [3] is 1 to 10 µM and 2 µM corresponded to half-maximal inhibition under setting [1] (IC50).
Regarding `Cc1ccc(NC(=O)N2C3C[C@@H](C#N)C[C@@H]2C3)cc1-c1ccccn1` [Example 75, trans-3-cyano-N-(4-methyl-3-(pyridin-2-yl)phenyl)-6-azabicyclo[3.1.1]heptane-6-carboxamide], the 50% inhibitory concentration (IC50) under setting [1] amounted to 0.4 µM and the concentration for half-maximal inhibition (IC50) under setting [2] was 0.0001 to 1 µM.
Turning to `Cc1cc(F)c(NC(=O)[C@@H]2CC2(F)F)cc1-c1ccccn1` (stereo in doubt) [Example 143, 2,2-difluoro-N-(2-fluoro-4-methyl-5-pyridin-2-ylphenyl)cyclopropane-1-carboxamide], the IC50 by setting is: under setting [3], 1 to 10 µM; under setting [1], 1.8 µM.
As for `Cc1ccc(NC(=O)[C@H]2C[C@@H](C(F)(F)F)CN2c2ncccn2)cc1-c1cccnn1` [Example 294, (2R,4R)-N-(4-methyl-3-pyridazin-3-ylphenyl)-1-pyrimidin-2-yl-4-(trifluoromethyl) pyrrolidine-2-carboxamide], the IC50 was 1 to 10 µM under setting [3] and 9.4 µM under setting [1].
Consider `Cc1ccc(NC(=O)N2[C@@H]3C[C@@H](C)C[C@H]2C3)cc1-c1nccc(C2CC2)n1` [Example 236, cis-N-[3-(4-cyclopropylpyrimidin-2-yl)-4-methylphenyl]-3-methyl-6-azabicyclo[3.1.1]heptane-6-carboxamide], for which the IC50 was 0.7 µM under setting [1] and 0.0001 to 1 µM under setting [2].
